In ChEMBL document CHEMBL4270485, “Determination of Gymnemic Acid I as a Protein Biosynthesis Inhibitor Using Chemical Proteomics” (J Nat Prod, 2017):
Active and inactive are the calls of the source. The rule behind the calls is not given here.

Key:
[1] = molecular target: T1, 80S Ribosome (Homo sapiens) (UniProt P08865+P42677+P62753+P15880+P23396+P61247+P62701+P22090+P46782+P62081+P62241+P46781+P46783+P62280+P25398+P62277+P62263+P62841+P62244+P62249+P08708+P62269+P39019+P60866+P63220+P62266+P62847+P62851+P62854+P62979+P62857+P62273+P62861+P39023+P36578+P46777+Q02878+P18124+P62424+P62917+P32969+P27635+P62906+P62913+P30050+P26373+P40429+P50914+P61313+P18621+Q07020+Q02543+P84098+P46778+P35268+P62829+P62750+P83731+P61254+P61353+P46776+P46779+P47914+P62888+P62899+P62910+P49207+P42766+P18077+Q9Y3U8+P83881+P61927+P61513+P63173+P62891+P62945+P05388+P05386); test: Binding affinity to 40S ribosomal protein S14 in human Hela cells lysates assessed as protein enrichment by measuring normalized heavy/light ratio at by nano-LC-ESIMS/MS analysis; format: cell-free
[2] = molecular target: T1, 80S Ribosome (Homo sapiens); test: Binding affinity to 40S ribosomal protein S3 in human Hela cells lysates assessed as protein enrichment by measuring normalized heavy/light ratio at by nano-LC-ESIMS/MS analysis; format: cell-free
[3] = molecular target: Alpha-enolase (Homo sapiens) (UniProt P06733); test: Binding affinity to alpha-enolase in human Hela cells lysates assessed as protein enrichment by measuring normalized heavy/light ratio at by nano-LC-ESIMS/MS analysis; format: cell-free
[4] = molecular target: T1, 80S Ribosome (Homo sapiens); test: Binding affinity to 60S ribosomal protein L13 in human Hela cells lysates assessed as protein enrichment by measuring normalized heavy/light ratio at by nano-LC-ESIMS/MS analysis; format: cell-free
[5] = molecular target: Programmed cell death protein 6 (Homo sapiens) (UniProt O75340); test: Binding affinity to programmed cell death protein 6 in human Hela cells lysates assessed as protein enrichment by measuring normalized heavy/light ratio at by nano-LC-ESIMS/MS analysis; format: cell-free
[6] = molecular target: Alkyldihydroxyacetonephosphate synthase, peroxisomal (Homo sapiens) (UniProt O00116); test: Binding affinity to alkyldihydroxyacetone phosphate synthase in human Hela cells lysates assessed as protein enrichment by measuring normalized heavy/light ratio at by nano-LC-ESIMS/MS analysis; format: cell-free
[7] = molecular target: Rho-related GTP-binding protein RhoQ (Homo sapiens) (UniProt P17081); test: Binding affinity to rho-related GTP-binding protein in human Hela cells lysates assessed as protein enrichment by measuring normalized heavy/light ratio at by nano-LC-ESIMS/MS analysis; format: cell-free
[8] = molecular target: T1, 80S Ribosome (Homo sapiens); test: Binding affinity to 40S ribosomal protein S24 in human Hela cells lysates assessed as protein enrichment by measuring normalized heavy/light ratio at by nano-LC-ESIMS/MS analysis; format: cell-free
[9] = molecular target: Elongation factor 1-alpha 1 (Homo sapiens) (UniProt P68104); test: Binding affinity to elongation factor 1-alpha 1 in human Hela cells lysates assessed as protein enrichment by measuring normalized heavy/light ratio at by nano-LC-ESIMS/MS analysis; format: cell-free
[10] = molecular target: T1, 80S Ribosome (Homo sapiens); test: Binding affinity to 40S ribosomal protein S30 in human Hela cells lysates assessed as protein enrichment by measuring normalized heavy/light ratio at by nano-LC-ESIMS/MS analysis; format: cell-free
[11] = molecular target: D-3-phosphoglycerate dehydrogenase (Homo sapiens) (UniProt O43175); test: Binding affinity to D3-phosphoglycerate dehydrogenase in human Hela cells lysates assessed as protein enrichment by measuring normalized heavy/light ratio at by nano-LC-ESIMS/MS analysis; format: cell-free
[12] = molecular target: Small ribosomal subunit protein eS6 (Homo sapiens) (UniProt P62753); test: Binding affinity to 40S ribosomal protein S6 in human Hela cells lysates assessed as protein enrichment by measuring normalized heavy/light ratio at by nano-LC-ESIMS/MS analysis; format: cell-free
HeLa = test: Inhibition of protein synthesis in human HeLa cells at 50 to 500 uM pre-incubated for 1 hr before L-[35S]-cysteine and L-[35S]-methionine addition and measured after 1 hr by Comassie staining based autoradiography; format: functional, cell-based
[13] = molecular target: Elongation factor 2 (Homo sapiens) (UniProt P13639); test: Binding affinity to eukaryotic translation initiation factor in human Hela cells lysates assessed as protein enrichment by measuring normalized heavy/light ratio at by nano-LC-ESIMS/MS analysis; format: cell-free
[14] = molecular target: Actin, cytoplasmic 1 (Homo sapiens) (UniProt P60709); test: Binding affinity to actin, Cytoplasmic1 in human Hela cells lysates assessed as protein enrichment by measuring normalized heavy/light ratio at by nano-LC-ESIMS/MS analysis; format: cell-free
[15] = molecular target: T1, 80S Ribosome (Homo sapiens); test: Binding affinity to 60S ribosomal protein L31 in human Hela cells lysates assessed as protein enrichment by measuring normalized heavy/light ratio at by nano-LC-ESIMS/MS analysis; format: cell-free
[16] = molecular target: Elongation factor 1-delta (Homo sapiens) (UniProt P29692); test: Binding affinity to elongation factor 1-delta in human Hela cells lysates assessed as protein enrichment by measuring normalized heavy/light ratio at by nano-LC-ESIMS/MS analysis; format: cell-free
[17] = molecular target: Peroxiredoxin-1 (Homo sapiens) (UniProt Q06830); test: Binding affinity to peroxiredoxin-1 in human Hela cells lysates assessed as protein enrichment by measuring normalized heavy/light ratio at by nano-LC-ESIMS/MS analysis; format: cell-free
[18] = molecular target: T1, 80S Ribosome (Homo sapiens); test: Binding affinity to 40S ribosomal protein S10 in human Hela cells lysates assessed as protein enrichment by measuring normalized heavy/light ratio at by nano-LC-ESIMS/MS analysis; format: cell-free
[19] = molecular target: GTP-binding nuclear protein Ran (Homo sapiens) (UniProt P62826); test: Binding affinity to GTP-binding nuclear protein ran in human Hela cells lysates assessed as protein enrichment by measuring normalized heavy/light ratio at by nano-LC-ESIMS/MS analysis; format: cell-free
[20] = molecular target: Large ribosomal subunit protein P2 (Homo sapiens) (UniProt P05387); test: Binding affinity to 60S acidic ribosomal protein P2 in human Hela cells lysates assessed as protein enrichment by measuring normalized heavy/light ratio at by nano-LC-ESIMS/MS analysis; format: cell-free
Homo sapiens = organism: Homo sapiens; test: Binding affinity to histone H2A in human Hela cells lysates assessed as protein enrichment by measuring normalized heavy/light ratio at by nano-LC-ESIMS/MS analysis; format: cell-free
[21] = molecular target: Glyceraldehyde-3-phosphate dehydrogenase (Homo sapiens) (UniProt P04406); test: Binding affinity to glyceraldehyde-3-phosphate dehydrogenase in human Hela cells lysates assessed as protein enrichment by measuring normalized heavy/light ratio at by nano-LC-ESIMS/MS analysis; format: cell-free
[22] = molecular target: T1, 80S Ribosome (Homo sapiens); test: Binding affinity to 60S ribosomal protein L35 in human Hela cells lysates assessed as protein enrichment by measuring normalized heavy/light ratio at by nano-LC-ESIMS/MS analysis; format: cell-free
[23] = molecular target: T1, 80S Ribosome (Homo sapiens); test: Binding affinity to 40S ribosomal protein S7 in human Hela cells lysates assessed as protein enrichment by measuring normalized heavy/light ratio at by nano-LC-ESIMS/MS analysis; format: cell-free
[24] = molecular target: T1, 80S Ribosome (Homo sapiens); test: Binding affinity to ribosomal protein S3 in human Hela cells lysates assessed as protein enrichment by Western blotting analysis; format: cell-free

Sequence of Alpha-enolase (Homo sapiens) (P06733 whole entry): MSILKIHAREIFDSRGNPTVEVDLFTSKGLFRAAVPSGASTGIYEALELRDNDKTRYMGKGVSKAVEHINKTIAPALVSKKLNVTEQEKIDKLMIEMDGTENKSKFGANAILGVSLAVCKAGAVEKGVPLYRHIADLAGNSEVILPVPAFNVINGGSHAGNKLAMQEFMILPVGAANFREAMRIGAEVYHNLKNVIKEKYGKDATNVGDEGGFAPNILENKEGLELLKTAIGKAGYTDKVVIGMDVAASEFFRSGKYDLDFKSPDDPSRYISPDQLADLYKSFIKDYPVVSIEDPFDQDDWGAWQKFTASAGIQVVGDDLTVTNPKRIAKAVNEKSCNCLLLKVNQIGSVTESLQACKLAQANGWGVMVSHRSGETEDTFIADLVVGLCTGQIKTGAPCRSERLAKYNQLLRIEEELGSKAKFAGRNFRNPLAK
Sequence of Glyceraldehyde-3-phosphate dehydrogenase (Homo sapiens) (P04406 2-335 limits assumed): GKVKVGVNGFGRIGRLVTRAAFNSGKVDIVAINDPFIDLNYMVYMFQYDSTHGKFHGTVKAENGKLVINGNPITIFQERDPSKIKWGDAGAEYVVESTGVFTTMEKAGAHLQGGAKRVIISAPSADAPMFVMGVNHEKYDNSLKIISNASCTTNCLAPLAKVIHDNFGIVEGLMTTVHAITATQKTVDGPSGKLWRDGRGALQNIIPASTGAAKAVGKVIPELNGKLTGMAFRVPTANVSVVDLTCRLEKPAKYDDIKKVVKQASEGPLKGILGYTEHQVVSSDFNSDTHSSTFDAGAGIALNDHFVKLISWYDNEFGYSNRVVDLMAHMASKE
Sequence of Rho-related GTP-binding protein RhoQ (Homo sapiens) (P17081 whole entry): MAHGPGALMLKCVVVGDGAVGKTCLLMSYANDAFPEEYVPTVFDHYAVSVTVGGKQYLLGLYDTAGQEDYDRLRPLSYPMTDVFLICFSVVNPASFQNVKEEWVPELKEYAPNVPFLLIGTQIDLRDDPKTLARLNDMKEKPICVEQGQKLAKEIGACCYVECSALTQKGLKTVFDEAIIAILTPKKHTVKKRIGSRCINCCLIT
Sequence of Alkyldihydroxyacetonephosphate synthase, peroxisomal (Homo sapiens) (O00116 whole entry): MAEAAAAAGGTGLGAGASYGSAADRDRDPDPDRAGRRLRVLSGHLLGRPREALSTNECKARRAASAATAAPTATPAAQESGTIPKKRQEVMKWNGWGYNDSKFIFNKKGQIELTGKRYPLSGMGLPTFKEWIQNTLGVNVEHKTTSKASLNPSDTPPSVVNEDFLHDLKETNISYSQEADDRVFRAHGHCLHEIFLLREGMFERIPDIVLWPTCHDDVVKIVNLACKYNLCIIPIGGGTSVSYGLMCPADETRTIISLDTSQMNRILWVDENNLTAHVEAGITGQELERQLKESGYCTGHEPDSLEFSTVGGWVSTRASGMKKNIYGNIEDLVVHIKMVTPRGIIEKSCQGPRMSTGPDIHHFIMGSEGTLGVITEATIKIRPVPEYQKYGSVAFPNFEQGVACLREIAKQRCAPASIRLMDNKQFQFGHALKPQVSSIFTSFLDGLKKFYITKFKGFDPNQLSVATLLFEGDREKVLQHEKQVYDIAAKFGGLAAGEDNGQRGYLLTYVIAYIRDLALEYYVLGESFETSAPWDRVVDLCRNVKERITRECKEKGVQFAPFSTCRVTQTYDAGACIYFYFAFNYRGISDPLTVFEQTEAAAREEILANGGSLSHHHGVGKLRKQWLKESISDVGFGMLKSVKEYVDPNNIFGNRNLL
Sequence of D-3-phosphoglycerate dehydrogenase (Homo sapiens) (O43175 whole entry): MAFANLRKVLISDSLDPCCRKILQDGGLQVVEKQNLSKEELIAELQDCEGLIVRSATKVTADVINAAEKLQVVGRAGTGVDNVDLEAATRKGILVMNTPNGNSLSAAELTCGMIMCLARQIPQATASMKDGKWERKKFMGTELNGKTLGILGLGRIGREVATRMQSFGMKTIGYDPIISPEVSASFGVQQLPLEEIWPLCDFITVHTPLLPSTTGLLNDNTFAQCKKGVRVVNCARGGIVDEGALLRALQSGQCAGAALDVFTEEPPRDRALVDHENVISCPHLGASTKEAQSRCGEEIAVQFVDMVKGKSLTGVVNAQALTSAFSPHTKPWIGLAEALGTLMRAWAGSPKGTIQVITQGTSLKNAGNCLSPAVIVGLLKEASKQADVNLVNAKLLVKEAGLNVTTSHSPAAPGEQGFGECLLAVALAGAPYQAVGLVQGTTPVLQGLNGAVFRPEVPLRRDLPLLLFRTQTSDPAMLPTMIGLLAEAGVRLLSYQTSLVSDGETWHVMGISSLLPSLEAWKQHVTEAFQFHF
Sequence of Peroxiredoxin-1 (Homo sapiens) (Q06830 whole entry): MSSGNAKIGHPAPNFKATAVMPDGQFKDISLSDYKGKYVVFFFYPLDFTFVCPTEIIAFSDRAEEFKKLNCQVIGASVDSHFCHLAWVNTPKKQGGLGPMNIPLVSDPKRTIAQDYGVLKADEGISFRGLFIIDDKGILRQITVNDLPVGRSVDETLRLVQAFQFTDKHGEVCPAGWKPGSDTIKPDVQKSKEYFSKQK
Sequence of Programmed cell death protein 6 (Homo sapiens) (O75340 whole entry): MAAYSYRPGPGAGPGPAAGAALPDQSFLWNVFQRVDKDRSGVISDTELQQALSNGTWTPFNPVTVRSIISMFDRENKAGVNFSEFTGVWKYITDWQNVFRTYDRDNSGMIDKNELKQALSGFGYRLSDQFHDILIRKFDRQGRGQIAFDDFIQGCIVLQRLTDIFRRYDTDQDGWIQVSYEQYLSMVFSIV
Sequence of Elongation factor 1-delta (Homo sapiens) (P29692 whole entry): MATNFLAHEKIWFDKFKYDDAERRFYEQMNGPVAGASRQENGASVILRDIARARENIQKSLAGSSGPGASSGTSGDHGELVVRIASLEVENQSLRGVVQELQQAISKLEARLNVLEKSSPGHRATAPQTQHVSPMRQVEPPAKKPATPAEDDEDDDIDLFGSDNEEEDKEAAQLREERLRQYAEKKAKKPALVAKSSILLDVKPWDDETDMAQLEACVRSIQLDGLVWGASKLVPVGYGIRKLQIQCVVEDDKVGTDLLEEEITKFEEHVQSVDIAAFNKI
Sequence of Large ribosomal subunit protein P2 (Homo sapiens) (P05387 whole entry): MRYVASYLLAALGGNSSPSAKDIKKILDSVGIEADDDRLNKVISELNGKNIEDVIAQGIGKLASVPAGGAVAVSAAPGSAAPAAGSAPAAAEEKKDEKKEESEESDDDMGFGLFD
Sequence of Elongation factor 1-alpha 1 (Homo sapiens) (P68104 whole entry): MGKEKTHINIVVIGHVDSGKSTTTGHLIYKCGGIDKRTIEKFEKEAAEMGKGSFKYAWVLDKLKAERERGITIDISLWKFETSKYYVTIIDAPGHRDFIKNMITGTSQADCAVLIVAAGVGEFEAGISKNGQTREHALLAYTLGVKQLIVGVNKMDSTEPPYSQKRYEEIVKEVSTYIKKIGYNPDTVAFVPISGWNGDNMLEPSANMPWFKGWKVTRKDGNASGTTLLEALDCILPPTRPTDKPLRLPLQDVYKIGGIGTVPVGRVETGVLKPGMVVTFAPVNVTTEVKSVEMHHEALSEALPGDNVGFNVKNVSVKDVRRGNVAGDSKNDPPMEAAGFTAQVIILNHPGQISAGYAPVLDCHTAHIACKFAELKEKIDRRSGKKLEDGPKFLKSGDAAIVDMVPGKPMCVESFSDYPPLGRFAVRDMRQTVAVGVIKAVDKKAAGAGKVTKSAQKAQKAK

Compound: C/C=C(\C)C(=O)O[C@H]1[C@H](O)[C@]2(COC(C)=O)[C@@H](O)C[C@]3(C)C(=CC[C@@H]4[C@@]5(C)CC[C@H](O[C@@H]6O[C@H](C(=O)O)[C@@H](O)[C@H](O)[C@H]6O)[C@@](C)(CO)[C@@H]5CC[C@]43C)[C@@H]2CC1(C)C
- Ratio [1]: 0.405
- Ratio [2]: 0.269
- Ratio [3]: 0.811
- Ratio [4]: 0.332
- Ratio [5]: 0.68
- Ratio [6]: 0.955
- Ratio [7]: 0.706
- Ratio [8]: 0.173
- Ratio [9]: 0.629
- Ratio [10]: 0.075
- Ratio [11]: 0.509
- Ratio [12]: 0.317
- inhibition (HeLa): Dose-dependent effect
- Ratio [13]: 0.795
- Ratio [14]: 0.436
- Ratio [15]: 0.439
- Ratio [16]: 0.622
- Ratio [17]: 1.06
- Ratio [18]: 0.39
- Ratio [19]: 1.53
- Ratio [20]: 0.329
- Ratio (Homo sapiens): 0.509
- Ratio [21]: 0.524
- Ratio [22]: 0.062
- Ratio [23]: 0.119
- Activity [24]: Active
